Paper PMC5503984, “Characterisation of preproendothelin-1 derived peptides identifies Endothelin-Like Domain Peptide as a modulator of Endothelin-1” (Scientific Reports, 2017)

Experiments:
[1] = system: anaesthetised rats; experiment: Mean arterial blood pressure in anaesthetised rats; assay type: in vivo, rat
Experimental: Figure 7 Cardiovascular effects of ELDP. […] (B) vasoconstrictor response to ET-1 (1 × 10^−9 M) alone (n = 8) or after pre-incubation with ELDP[162-amide] (10 × 10^−9 M, n = 10); P < 0.002; Student’s t-test. (C) Change in mean arterial blood pressure in anaesthetised rats following ET-1 (0.3 nmol/kg, i.v.) alone (white circles, n = 6) or 15 min after ELDP (3 nmol/kg i.v.) (red circles, n = 6). […] Results are mean ± s.e.m.
All experiments were conducted according to the Animals (Scientific Procedures) Act 1986, UK, and approved by the UK Home Office. Clearance rates of proET-1 peptides and blood pressure effects of ELDP were determined in male Wistar rats (Charles River) anaesthetised with sodium thiopentone (120 mg/kg i.p.). Peptides were administered i.v. via a polyethylene catheter in the left femoral vein. Blood samples (0.5 ml) were collected from a catheter in the left carotid artery into chilled 1.5 ml microcentrifuge tubes containing 50 U/5 µl of heparin. Samples were centrifuged at 12,000 rpm for 2 min at 4 °C. Plasma (50 µl aliquots) samples were stored at −80 °C for subsequent analyses. Blood pressure and heart rate were recorded from the left carotid artery via a polyethylene catheter using Labchart 7.1 (AD Instruments Ltd).

[2] = system: orphan GPCRs; experiment: PathHunter Orphan GPCR biosensor panel (ß-arrestin binding, ß-galactosidase complementation); assay type: cell-based; details: 0.1 µM ELDP, 90 min at room temperature, duplicate, 5000 cells per well; chemiluminescence; no response above three standard deviations of control
Text: An important component of ET-1-induced vasoconstriction is Ca^2+ influx through voltage-gated L-type Ca^2+ channels, [67]. Modulation of ET-1 responses by ELDP therefore likely involves facilitation of Ca^2+ influx. Responses to norepinephrine and serotonin are also augmented by ET-1, and this has been attributed to increased Ca^2+ influx[68]–[70]. To investigate whether ELDP mediates its effects via a distinct G-protein coupled receptor (GPCR), whose ligand pairing had yet to be assigned, ELDP was evaluated against a panel of cell-expressed orphan GPCRs using a detection system based on ß-arrestin binding (Supplementary Figure S3). […]
arrestin and to the GPCR complementing each other to reconstitute ß-galactosidase activity, which is then measured by chemiluminescence ß-galactosidase assay as an index of receptor binding (1,2).
Orphan GPCR screening for ELDP was undertaken by DiscoverRx Corporation, Fremont, CA 94538, USA. […] At the end of the incubation period chemiluminescent substrate was add, and incubated for 60 min before measurement of relative luminescence (RLU) using a PerkinElmer […]
Data Analysis: Percentage activity was calculated for each test well relative to the mean RLU of the corresponding vehicle-treated GPCR. Results are expressed as mean control (%) ± coefficient of […]

ALENLLPTKATDRENRCQCASQKDKKCWNFCQAGKELRAEDIMEKDWNNHKKGKDCSKLGKKCIYQQLVRGRKI (disulfide (positions not given here)) [ELDP]
effect on blood pressure, peptide alone ([1]; 3 nmol/kg i.v., anaesthetised rats): no effect | magnitude of the initial pressor response to ET-1 ([1]; ET-1 0.3 nmol/kg i.v. given 15 min after ELDP 3 nmol/kg i.v., n = 6 per group): without changing | duration of the pressor response to ET-1 ([1]; ET-1 0.3 nmol/kg i.v. given 15 min after ELDP 3 nmol/kg i.v., n = 6 per group, P < 0.02): significantly increased | receptor – ligand pairing in orphan GPCR screen [2]: failed to identify an ELDP receptor – ligand pair
